From US8637504B2, “Sulfur-containing heterocyclic derivative having beta secretase inhibitory activity” (Shionogi & Co., Ltd., priority 2008, dated 2014)

target: Recombinant human BACE-1 (Homo sapiens (Human), UniProt P56817); test: Assay of β-secretase-inhibiting activity; settings: not given
Sequence (P56817 46-501): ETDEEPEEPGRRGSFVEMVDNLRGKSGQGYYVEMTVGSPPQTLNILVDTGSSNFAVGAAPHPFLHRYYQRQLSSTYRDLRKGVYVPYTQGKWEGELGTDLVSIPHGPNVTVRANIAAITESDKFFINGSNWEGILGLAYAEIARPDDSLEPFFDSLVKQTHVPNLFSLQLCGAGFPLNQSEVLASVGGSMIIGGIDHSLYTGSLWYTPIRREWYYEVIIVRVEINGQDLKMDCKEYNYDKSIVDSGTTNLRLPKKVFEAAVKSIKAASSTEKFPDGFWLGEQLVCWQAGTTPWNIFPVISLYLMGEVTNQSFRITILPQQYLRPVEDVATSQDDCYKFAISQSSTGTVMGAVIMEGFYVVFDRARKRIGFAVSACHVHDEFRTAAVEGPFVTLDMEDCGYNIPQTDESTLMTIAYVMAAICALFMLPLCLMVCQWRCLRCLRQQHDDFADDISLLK

IC50	SMILES
≤ 1000 nM	COCCOc1cnc(C(=O)Nc2cccc(C3(C4CCCCC4)CSC(N)=N3)c2)cn1 (stereo not shown) [Compound 1]
≤ 1000 nM	COc1ccc(C2(c3cccc(NC(=O)c4ncc(Cl)cc4Cl)c3)CSC(N)=N2)cc1 (stereo not shown) [Compound 4]
≤ 1000 nM	COc1ccc(C2(c3cccc(NC(=O)c4cnc(O)cn4)c3)CSC(N)=N2)cc1 (stereo not shown) [Compound 5]
≤ 1000 nM	Cc1cnc(C(=O)Nc2ccc(F)c([C@]3(C)C=CSC(N)=N3)c2)cn1 [Compound 12]
≤ 1000 nM	COc1cnc(C(=O)Nc2ccc(F)c([C@]3(C)C=CSC(N)=N3)c2)cn1 [Compound 13]
≤ 1000 nM	C#CCOc1cnc(C(=O)Nc2ccc(F)c([C@]3(C)C=CSC(N)=N3)c2)cn1 [Compound 14]
≤ 1000 nM	Cc1nc(C(=O)Nc2ccc(F)c([C@]3(C)C=CSC(N)=N3)c2)co1 [Compound 15]
≤ 1000 nM	COc1cnc(C(=O)Nc2ccc(F)c([C@]3(C)C=C(c4ccccc4)SC(N)=N3)c2)cn1 [Compound 18]
≤ 1000 nM	Cc1cnc(C(=O)Nc2ccc(F)c([C@]3(C)C=C(c4ccccc4)SC(N)=N3)c2)cn1 [Compound 19]
≤ 1000 nM	COc1cnc(C(=O)Nc2ccc(F)c([C@]3(C)C=C(C)SC(N)=N3)c2)cn1 [Compound 25]
≤ 1000 nM	C#CCOc1cnc(C(=O)Nc2ccc(F)c([C@]3(C)C=C(C)SC(N)=N3)c2)cn1 [Compound 26]
≤ 1000 nM	COc1cnc(C(=O)Nc2cccc([C@]3(C)C=CSC(N)=N3)c2)cn1 [Compound 28]
≤ 1000 nM	C#CCOc1cnc(C(=O)Nc2cccc([C@]3(C)C=CSC(N)=N3)c2)cn1 [Compound 29]
≤ 1000 nM	C[C@@]1(c2cccc(NC(=O)c3ccc(C#N)cn3)c2)C=CSC(N)=N1 [Compound 30]
≤ 1000 nM	C[C@@]1(c2cc(NC(=O)c3cnc(OCCF)cn3)ccc2F)C=CSC(N)=N1 [Compound 31]
≤ 1000 nM	COCCOc1cnc(C(=O)Nc2ccc(F)c([C@]3(C)C=CSC(N)=N3)c2)cn1 [Compound 34]

IC50	SMILES
≤ 1000 nM	C[C@@]1(c2cc(NC(=O)c3cnc(-c4ccc[nH]4)cn3)ccc2F)C=CSC(N)=N1 [Compound 36]
≤ 1000 nM	COc1cnc(C(=O)Nc2ccc(F)c([C@]3(C)C=CSC(N)=N3)c2)c(N)n1 [Compound 37]
≤ 1000 nM	NC1=NC(c2cccc(NC(=O)c3ncc(Cl)cc3Cl)c2)(C(F)(F)F)CCS1 (stereo not shown) [Compound 45]
≤ 1000 nM	C#CCOc1cnc(C(=O)Nc2cccc(C3(C(F)(F)F)CCSC(N)=N3)c2)cn1 (stereo not shown) [Compound 49]
≤ 1000 nM	C=C1C[C@@](C)(c2cc(NC(=O)c3ccc(C#N)cn3)ccc2F)N=C(N)S1 [Compound 50]
≤ 1000 nM	C=C1C[C@@](C)(c2cc(NC(=O)c3ncc(Cl)cc3Cl)ccc2F)N=C(N)S1 [Compound 52]
≤ 1000 nM	C[C@@]1(c2cc(NC(=O)c3ccc(C#N)cn3)ccc2F)C/C(=C/CO)SC(N)=N1 [Compound 54]
≤ 1000 nM	CC(C)(O)/C=C1/C[C@@](C)(c2cc(NC(=O)c3ccc(C#N)cn3)ccc2F)N=C(N)S1 [Compound 55]
≤ 1000 nM	NC1=NC(c2ccc(OC(F)(F)F)cc2)(c2cccc(NC(=O)c3ncc(Cl)cc3Cl)c2)CS1 (stereo not shown) [Compound 57]
≤ 1000 nM	Cc1ncn(-c2cnc(C(=O)Nc3ccc(F)c([C@]4(C)C=CSC(N)=N4)c3)cn2)n1 [Compound 74]
≤ 1000 nM	C[C@@]1(c2cc(NC(=O)c3ncc(F)cc3F)ccc2F)C=CSC(N)=N1 [Compound 77]
≤ 1000 nM	C[C@@]1(c2cc(NC(=O)c3ncc(C#N)cn3)ccc2F)C=CSC(N)=N1 [Compound 78]
≤ 1000 nM	C[C@@]1(c2cc(NC(=O)c3ncc(Cl)cn3)ccc2F)C=CSC(N)=N1 [Compound 80]
≤ 1000 nM	C[C@@]1(c2cc(NC(=O)c3ncc(C#N)cc3F)ccc2F)C=CSC(N)=N1 [Compound 84]
≤ 1000 nM	C/C(CO)=C1\C[C@@](C)(c2cc(NC(=O)c3ccc(C#N)cn3)ccc2F)N=C(N)S1 [Compound 85]
≤ 1000 nM	C/C(=C1\C[C@@](C)(c2cc(NC(=O)c3ccc(C#N)cn3)ccc2F)N=C(N)S1)C(F)F [Compound 94]

SMILES	IC50
CC1=C[C@@](C)(c2cc(NC(=O)c3ccc(C#N)cn3)ccc2F)N=C(N)S1 [Compound 27]	≤ 1000 nM

same assay, conditions: Recombinant human BACE-1 7.4 nM, substrate peptide 18 nM, pH 5.0, 30° C. 3 hours

IC50	SMILES
966 nM	NC1=NC(c2cccc(NC(=O)c3ccc(O)cn3)c2)(C2CCCCC2)CS1 (stereo not shown) [Compound 3]
10 nM	C[C@@]1(c2cc(NC(=O)c3ccc(Cl)cn3)ccc2F)C=CSC(N)=N1 [Compound 16]
95 nM	CC(C)=C1C[C@@](C)(c2cc(NC(=O)c3cnc(C)cn3)ccc2F)N=C(N)S1 [Compound 20]
19 nM	COc1cnc(C(=O)Nc2ccc(F)c([C@]3(C)CC(=C(C)C)SC(N)=N3)c2)cn1 [Compound 21]
572 nM	COc1cnc(C(=O)Nc2ccc(F)c([C@@]3(C)N=C(N)SC=C3C)c2)cn1 [Compound 22]
54 nM	C#CCOc1cnc(C(=O)Nc2ccc(F)c([C@@]3(C)N=C(N)SC=C3C)c2)cn1 [Compound 24]
73 nM	COCCOc1ccc(C(=O)Nc2ccc(F)c([C@]3(C)C=CSC(N)=N3)c2)nc1 [Compound 33]
97 nM	C[C@@]1(c2cc(NC(=O)c3ccc(-c4ccc[nH]4)cn3)ccc2F)C=CSC(N)=N1 [Compound 39]
2130 nM	Cc1cnc(C(=O)Nc2cccc(C3(C(F)(F)F)CCSC(N)=N3)c2)cn1 (stereo not shown) [Compound 44]
611 nM	NC1=NC(c2cccc(NC(=O)c3cnc(OCCF)cn3)c2)(C(F)(F)F)CCS1 (stereo not shown) [Compound 46]
91 nM	N#Cc1ccc(C(=O)Nc2cccc(C3(C(F)(F)F)CCSC(N)=N3)c2)nc1 (stereo not shown) [Compound 47]
273 nM	COc1cnc(C(=O)Nc2cccc(C3(C(F)(F)F)CCSC(N)=N3)c2)cn1 (stereo not shown) [Compound 48]
16 nM	C=C1C[C@@](C)(c2cc(NC(=O)c3cnc(OC)cn3)ccc2F)N=C(N)S1 [Compound 51]
352 nM	NC1=NC(c2cccc(F)c2)(c2cccc(NC(=O)c3ncc(Cl)cc3Cl)c2)CS1 (stereo not shown) [Compound 56]
186 nM	COc1ccc(C2(c3cccc(NC(=O)c4ncc(Cl)cc4Cl)c3)CSC(N)=N2)cc1O (stereo not shown) [Compound 58]
19 nM	C[C@@]1(c2cc(NC(=O)c3ncc(C#N)cc3Cl)ccc2F)C=CSC(N)=N1 [Compound 59]
296 nM	C[C@@]1(c2cc(NC(=O)c3cnc(NS(C)(=O)=O)cn3)ccc2F)C=CSC(N)=N1 [Compound 66]
250 nM	C[C@@]1(c2cc(NC(=O)c3cnc(-n4ccnn4)cn3)ccc2F)C=CSC(N)=N1 [Compound 72]
234 nM	C[C@@]1(c2cc(NC(=O)c3cnc(-n4nccn4)cn3)ccc2F)C=CSC(N)=N1 [Compound 73]
697 nM	Cc1ncnn1-c1cnc(C(=O)Nc2ccc(F)c([C@]3(C)C=CSC(N)=N3)c2)cn1 [Compound 75]
24 nM	C[C@@]1(c2cc(NC(=O)c3ncc(Br)cn3)ccc2F)C=CSC(N)=N1 [Compound 79]
7 nM	Cc1c(C(=O)Nc2ccc(F)c([C@]3(C)C=CSC(N)=N3)c2)oc2ccc(Br)cc12 [Compound 81]

SMILES	IC50
C=C1C[C@@](C)(c2cc(NC(=O)c3cnc(C)cn3)ccc2F)N=C(N)S1 [Compound 53]	76 nM
C[C@@]1(c2cc(NC(=O)c3cnc(OCc4ncc[nH]4)cn3)ccc2F)C=CSC(N)=N1 [Compound 61]	169 nM
C[C@@]1(c2cc(NC(=O)c3ccc(F)cn3)ccc2F)C=CSC(N)=N1 [Compound 76]	62 nM
